Test results: US10464922B2, “Metalloenzyme inhibitor compounds” (NQP 1598 LTD., priority 2015, dated 2019)
Values after ≈ are worked out from the molar mass of the structure shown.

Legend:
[1] = tested on: C. albicans (ATCC 90028); assay: Minimum inhibitory concentration, in vitro broth microdilution assay (CLSI M27-A2); format: cell-based, Candida albicans; details: ATCC 90028, about 50% growth reduction, 2 days at 36° C., range tested 8-0.0078 μg/mL, values given as ranges; for MIC: Candida albicans, ATCC90028, 48 h, read-out: Candida albicans MIC
How it was run: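 Inoculum of 1×10^3 to 1×10^4 CFU/mL in RPMI-1640+MOPS, exposed to 11 two-fold serial compound concentrations at 2 percent final DMSO, per CLSI M27-A2. After 2 days at 36° C, wells scored visually for growth to give MIC; tested in duplicate.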

[2] = tested on: Hedgehog signaling pathway Gli Reporter-NIH3T3 cells; assay: Gli luciferase reporter assay, Hedgehog signalling pathway activity; format: cell-based; details: mShh 1 μg/ml, 27 hours
Method: Hedgehog signaling pathway Gli Reporter-NIH3T3 cells were cultured in DMEM medium with 10% Calf serum, 1% Penn-strep, 500 μg/ml of Geneticin.
To perform the Gli luciferase reporter assay, Gli Reporter—NIH3T3 cells were seeded at 25,000 cells per well into white clear-bottom 96-well microplate in 100 μl of growth medium. Cells were incubated at 37° C., and 5% CO2 for overnight. The next day, remove the medium from wells and add 45 μl of diluted inhibitor in assay medium (Opti-MEM Reduced Serum Medium+0.5% calf serum+1% non-essential amino acids+1 mM Na-pyruvate+10 mM HEPES+1% Pen/Strep) per well. Incubate cells at 37° C. in a CO2 incubator for 2 hours. Then add 5 μl of diluted mShh in assay medium to wells (final [mShh]=1 μg/ml). Add 50 μl of assay medium to cell-free control wells. Cells were treated for 27 hours. After treatment, cells were lysed and luciferase assay was performed using ONE-Step luciferase assay system: add 50 μl of One-Step Luciferase reagent per well and rock at room temperature for ˜30 minutes. Luminescence was measured using a luminometer (BioTek Synergy™ 2 microplate reader). Compounds of the present invention are active in blockade of hedgehog signalling.

[3] = tested on: A. fumigatus; assay: A. fumigatus MIC at 100% growth inhibition (CLSI M38-A2); format: cell-based, Aspergillus fumigatus; details: 100% growth inhibition, range tested 8-0.0078 μg/mL, values given as ranges; for MIC: Aspergillus fumigatus, read-out: Aspergillus fumigatus MIC
Method: A. fumigatus MICs were determined at 100% growth inhibition following CLSI guidelines at a concentration range of 8-0.0078 μg/mL (CLSI M38-A2).

MIC [1] | MIC [3] | Candida albicans MIC [1] | Aspergillus fumigatus MIC [3] | SMILES | IC50 [2]
1 to 8 µg/mL (≈ 1.32 to 10.6 µM) | > 8 µg/mL | – | – | CC[C@@H]([C@H](C)O)n1ncn(-c2ccc(N3CCN(c4ccc(-c5ccc(C(F)(F)C(O)(Cn6cccn6)c6cccc(Cl)c6)nc5)cc4)CC3)cc2)c1=O (stereo partly drawn) [Example 126, 4-(4-(4-(4-(6-(2-(3-chlorophenyl)-1,1-difluoro-2-hydroxy-3-(1H-pyrazol-1-yl)propyl)pyridin-3-yl)phenyl)piperazin-1-yl)phenyl)-2-((2S,3S)-2-hydroxypentan-3-yl)-2,4-dihydro-3H-1,2,4-triazol-3-one] | 190 nM
> 8 µg/mL | > 8 µg/mL | – | – | CC[C@@H]([C@H](C)O)n1ncn(-c2ccc(N3CCN(c4ccc(-c5ccc(C(F)(F)C(O)(Cc6nnn[nH]6)c6ccccc6F)nc5)cc4)CC3)cc2)c1=O (stereo partly drawn) [Example 115, 4-(4-(4-(4-(6-(1,1-difluoro-2-(2-fluorophenyl)-2-hydroxy-3-(1H-tetrazol-5-yl)propyl)pyridin-3-yl)phenyl)piperazin-1-yl)phenyl)-2-((2S,3S)-2-hydroxypentan-3-yl)-2,4-dihydro-3H-1,2,4-triazol-3-one] | 510 nM
0.0078 to 0.01 µg/mL (≈ 0.0121 to 0.0156 µM) | > 8 µg/mL | – | – | N#Cc1ccc(CN2CCN(c3ccc(-c4ccc(C(F)(F)[C@](O)(Cn5cnnn5)c5ccc(F)cc5F)nc4)cc3)CC2=O)cc1 [Example 28, (R)-4-((4-(4-(6-(2-(2,4-difluorophenyl)-1,1-difluoro-2-hydroxy-3-(1H-tetrazol-1-yl)propyl)pyridin-3-yl)phenyl)-2-oxopiperazin-1-yl)methyl)benzonitrile] | 580 nM
0.0078 to 0.01 µg/mL (≈ 0.0115 to 0.0148 µM) | 0.25 to 1 µg/mL (≈ 0.369 to 1.48 µM) | – | – | CCC(C)C(O)c1ccc(N2CCN(c3ccc(-c4ccc(C(F)(F)[C@](O)(Cn5cnnn5)c5ccc(F)cc5F)nc4)cc3)CC2)cn1 (stereo partly drawn) [Example 65, 1-(5-(4-(4-(6-((R)-2-(2,4-difluorophenyl)-1,1-difluoro-2-hydroxy-3-(1H-tetrazol-1-yl)propyl)pyridin-3-yl)phenyl)piperazin-1-yl)pyridin-2-yl)-2-methylbutan-1-ol] | –
0.0078 to 0.01 µg/mL (≈ 0.0115 to 0.0148 µM) | 0.25 to 1 µg/mL (≈ 0.37 to 1.48 µM) | – | – | CCC(C)C(O)c1ccc(N2CCN(c3ccc(-c4ccc(C(F)(F)[C@](O)(Cn5cnnn5)c5ccc(F)cc5F)nc4)cc3)CC2)cc1 (stereo partly drawn) [Example 59, 1-(4-(4-(4-(6-((R)-2-(2,4-difluorophenyl)-1,1-difluoro-2-hydroxy-3-(1H-tetrazol-1-yl)propyl)pyridin-3-yl)phenyl)piperazin-1-yl)phenyl)-2-methylbutan-1-ol] | –
0.0078 to 0.01 µg/mL (≈ 0.0119 to 0.0153 µM) | > 8 µg/mL | – | – | N#Cc1ccc2nc(N3CCN(c4ccc(-c5ccc(C(F)(F)[C@](O)(Cn6cnnn6)c6ccc(F)cc6F)nc5)cc4)CC3)[nH]c2c1 [Example 74, (R)-2-(4-(4-(6-(2-(2,4-difluorophenyl)-1,1-difluoro-2-hydroxy-3-(1H-tetrazol-1-yl)propyl)pyridin-3-yl)phenyl)piperazin-1-yl)-1H-benzo [d] imidazole-6-carbonitrile] | –
0.0078 to 0.01 µg/mL (≈ 0.0124 to 0.0159 µM) | > 8 µg/mL | – | – | N#Cc1ccc(N2CCN(c3ccc(-c4ccc(C(F)(F)[C@](O)(Cn5cnnn5)c5ccc(F)cc5F)nc4)cc3)C(=O)C2)cc1 [Example 24, (R)-4-(4-(4-(6-(2-(2,4-difluorophenyl)-1,1-difluoro-2-hydroxy-3-(1H-tetrazol-1-yl)propyl)pyridin-3-yl)phenyl)-3-oxopiperazin-1-yl) benzonitrile] | –
0.0078 to 0.01 µg/mL (≈ 0.0105 to 0.0134 µM) | 0.062 to 0.25 µg/mL (≈ 0.0832 to 0.336 µM) | – | – | CC(C)(O)Cn1ncn(-c2ccc(N3CCN(c4ccc(-c5ccc(C(F)(F)[C@](O)(Cn6cnnn6)c6ccc(F)cc6F)nc5)cc4)CC3)cc2)c1=O [Example 67, (R)-4-(4-(4-(4-(6-(2-(2,4-difluorophenyl)-1,1-difluoro-2-hydroxy-3-(1H-tetrazol-1-yl)propyl)pyridin-3-yl)phenyl)piperazin-1-yl)phenyl)-2-(2-hydroxy-2-methylpropyl)-2,4-dihydro-3H-1,2,4-triazol-3-one] | –
0.0078 to 0.01 µg/mL (≈ 0.0105 to 0.0135 µM) | 0.25 to 1 µg/mL (≈ 0.337 to 1.35 µM) | – | – | CC[C@@H]([C@H](C)O)n1cnc(-c2ccc(N3CCN(c4ccc(-c5ccc(C(F)(F)[C@](O)(Cn6cnnn6)c6ccc(F)cc6F)nc5)cc4)CC3)cc2)n1 [Example 92, (2S,3S)-3-(3-(4-(4-(4-(6-(2-(2,4-difluorophenyl)-1,1-difluoro-2-hydroxy-3-(1H-tetrazol-1-yl)propyl)pyridin-3-yl)phenyl)piperazin-1-yl)phenyl)-1H-1,2,4-triazol-1-yl) pentan-2-ol] | –

Second part, the compound before the results:

SMILES | MIC [1] | MIC [3] | Candida albicans MIC [1] | Aspergillus fumigatus MIC [3] | IC50 [2]
N#Cc1ccc(N2CCN(c3ccc(-c4ccc(C(F)(F)[C@](O)(Cn5cnnn5)c5ccc(F)cc5F)nc4)cc3)CC2)nc1 [Example 12] | 0.0078 to 0.01 µg/mL (≈ 0.0127 to 0.0162 µM) | 0.25 to 1 µg/mL (≈ 0.406 to 1.62 µM) | – | – | 400 nM
CC[C@@H]([C@H](C)O)n1ncn(-c2ccc(N3CCN(c4ccc(-c5ccc(C(F)(F)[C@](O)(Cn6cnnn6)c6ccc(F)cc6F)nc5)cc4)CC3)cc2)c1=O [Example 20, 4-(4-(4-(4-(6-((R)-2-(2,4-difluorophenyl)-1,1-difluoro-2-hydroxy-3-(1H-tetrazol-1-yl)propyl)pyridin-3-yl)phenyl)piperazin-1-yl)phenyl)-2-((2S,3S)-2-hydroxypentan-3-yl)-2,4-dihydro-3H-1,2,4-triazol-3-one] | 0.0078 to 0.01 µg/mL (≈ 0.0103 to 0.0132 µM) | 1 to 4 µg/mL (≈ 1.32 to 5.27 µM) | – | – | 190 nM
CC[C@@H]([C@H](C)O)n1ncn(-c2ccc(N3CCN(c4ccc(-c5ccc(C(F)(F)C(O)(Cn6ncnc6C)c6cccc(F)c6)nc5)cc4)CC3)cc2)c1=O (single isomer, unassigned; (+)) [85(+)] | 0.1 to 1 µg/mL (≈ 0.133 to 1.33 µM) | > 8 µg/mL | – | – | 253 nM
CC[C@@H]([C@H](C)O)n1ncn(-c2ccc(N3CCN(c4ccc(-c5ccc(C(F)(F)C(O)(Cn6cnnn6)c6ccccc6F)nc5)cc4)CC3)cc2)c1=O (mixture of isomers) [Example 38] | – | – | – | – | 38 nM
N#Cc1ccc(N2CCN(c3ccc(-c4ccc(C(F)(F)[C@](O)(Cn5cnnn5)c5ccc(F)cc5F)nc4)cc3F)CC2)c(F)c1 [Example 9, (R)-4-(4-(4-(6-(2-(2,4-difluorophenyl)-1,1-difluoro-2-hydroxy-3-(1H-tetrazol-1-yl)propyl)pyridin-3-yl)-2-fluorophenyl)piperazin-1-yl)-3-fluorobenzonitrile] | 0.0078 to 0.01 µg/mL (≈ 0.012 to 0.0154 µM) | > 8 µg/mL | – | – | –
OC(c1ccc(N2CCN(c3ccc(-c4ccc(C(F)(F)[C@](O)(Cn5cnnn5)c5ccc(F)cc5F)nc4)cc3)CC2)cn1)C(F)(F)F (single isomer, unassigned) [Example 6-Fr-II] | – | – | ≤0.0078 to 0.010 µg/mL | 0.25 to 1.0 µg/mL | –
CC[C@H](NC(=O)Nc1ccc(N2CCN(c3ccc(-c4ccc(C(F)(F)[C@](O)(Cn5cnnn5)c5ccc(F)cc5F)nc4)cc3)CC2)cc1)[C@H](C)O [Example 21, 1-(4-(4-(4-(6-((R)-2-(2,4-difluorophenyl)-1,1-difluoro-2-hydroxy-3-(1H-tetrazol-1-yl)propyl)pyridin-3-yl)phenyl)piperazin-1-yl)phenyl)-3-((2S,3S)-2-hydroxypentan-3-yl) urea] | 0.01 to 0.1 µg/mL (≈ 0.0136 to 0.136 µM) | 0.25 to 1 µg/mL (≈ 0.341 to 1.36 µM) | – | – | –
OC(c1cn(-c2ccc(N3CCN(c4ccc(-c5ccc(C(F)(F)C(O)(Cn6cnnn6)c6ccccc6F)nc5)cc4)CC3)cc2)nn1)C(F)(F)F (single isomer, unassigned; (+)) [108(+), (+)-1,1-difluoro-2-(2-fluorophenyl)-3-(1H-tetrazol-1-yl)-1-(5-(4-(4-(4-(4-(2,2,2-trifluoro-1-hydroxyethyl)-1H-1,2,3-triazol-1-yl)phenyl)piperazin-1-yl)phenyl)pyridin-2-yl) propan-2-ol] | – | – | ≤0.0078 to 0.010 µg/mL | 0.25 to 1.0 µg/mL | –
